From ChEMBL document CHEMBL4813973, “Discovery of novel N-benzylbenzamide derivatives as tubulin polymerization inhibitors with potent antitumor activities” (Eur J Med Chem, 2021)
Converted amounts (≈) assume the structure as drawn. The source made the active and inactive calls. The calls are words filed in the database; no cut-off is given here.

Tests used:
[1] = tested on: H22; assay: Antitumor activity against […] xenografted in ICR mouse assessed as reduction in tumor growth at 20 mg/kg/day, iv for 21 days; assay type: functional, organism-based; settings: time 21.0 day
[2] = Induction of mitochondria membrane potential loss in human A-431 cells assessed as red fluorescence intensity at 7.5 nM incubated 48 hrs by JC-1 probe based flow cytometry analysis (reference value: 93.83%); assay type: functional
[3] = tested on: A-431; assay: Induction of apoptosis in human A-431 cells assessed as downregulation of Bcl2 protein expression by western blot analysis; assay type: functional, cell-based; settings: dose 7.5-30 nM
[4] = tested on: A-431; assay: Induction of cell cycle arrest in human A-431 cells assessed as accumulation at G1 phase at 30 nM after 48 hrs by propidium iodide staining based flow cytometry (reference value: 41.16%); assay type: functional
[5] = tested on: A-431; assay: Cell cycle arrest in human A-431 cells assessed as downregulation of CyclinB1 expression by Western blot analysis; assay type: functional, cell-based; settings: dose 7.5-30 nM
[6] = tested on: A-431; assay: Induction of apoptosis in human A-431 cells assessed as necrotic cells at 7.5 nM after 48 hrs by Annexin-V-APC/PI-staining based flow cytometric analysis (reference value: 3.79%); assay type: functional
[7] = tested on: A-431; assay: Induction of apoptosis in human A-431 cells assessed as early apoptotic cells at 30 nM after 48 hrs by Annexin-V-APC/PI-staining based flow cytometric analysis (reference value: 0.82%); assay type: functional
[8] = tested on: A-431; assay: Induction of apoptosis in human A-431 cells assessed as necrotic cells at 15 nM after 48 hrs by Annexin-V-APC/PI-staining based flow cytometric analysis (reference value: 3.79%); assay type: functional
[9] = tested on: HCT-8; assay: Antiproliferative activity against human HCT-8 cells assessed as reduction in cell viability incubated for 72 hrs by MTT assay; assay type: functional, cell-based; settings: Homo sapiens, HCT-8, 72 h; read-out: IC50
[10] = Induction of mitochondria membrane potential loss in human A-431 cells assessed as red fluorescence intensity at 30 nM incubated for 48 hrs by JC-1 probe based flow cytometry analysis (reference value: 93.83%); assay type: functional
[11] = tested on: A-431; assay: Cell cycle arrest in human A-431 cells assessed as downregulation of cdc2 expression by Western blot analysis; assay type: functional, cell-based; settings: dose 7.5-30 nM
[12] = tested on: A-431; assay: Induction of apoptosis in human A-431 cells assessed as late apoptotic cells at 7.5 nM after 48 hrs by Annexin-V-APC/PI-staining based flow cytometric analysis (reference value: 2.02%); assay type: functional
[13] = tested on: K562; assay: cells; settings: Homo sapiens, K562, 72 h
Description: Antiproliferative activity against human K562 cells assessed as reduction in cell viability incubated for 72 hrs by MTT assay

[14] = tested on: Bel-7402; assay: Antiproliferative activity against human Bel-7402 cells assessed as reduction in cell viability incubated for 72 hrs by MTT assay; assay type: functional, cell-based; settings: Homo sapiens, Bel-7402, 72 h; read-out: IC50
[15] = tested on: A-431; assay: Induction of cell cycle arrest in human A-431 cells assessed as accumulation at G1 phase at 7.5 nM after 48 hrs by propidium iodide staining based flow cytometry (reference value: 41.16%); assay type: functional
[16] = tested on: HCT-8; assay: Antiproliferative activity against taxol-resistant human HCT-8 cells assessed as reduction in cell viability incubated for 72 hrs by MTT assay; assay type: functional, cell-based; settings: Homo sapiens, HCT-8, 72 h; read-out: IC50
[17] = tested on: A-431; assay: Induction of cell cycle arrest in human A-431 cells assessed as accumulation at S phase at 15 nM after 48 hrs by propidium iodide staining based flow cytometry (reference value: 46.57%); assay type: functional
[18] = tested on: HUVEC; assay: Antivascular activity in HUVEC assessed as inhibition of capillary like tube formation at 30 nM incubated for 6 hrs by matrigel based inverted fluorescence microscopic analysis; assay type: functional, cell-based; settings: Homo sapiens
[19] = organism: Sus scrofa; assay: Inhibition of [3H]colchicine binding to biotinylated pig brain tubulin at 1 uM incubated for 2 hrs in presence of GTP by competitive scintillation proximity assay; assay type: tissue-based
[20] = tested on: A-431; assay: Induction of apoptosis in human A-431 cells assessed as viable cells at 15 nM after 48 hrs by Annexin-V-APC/PI-staining based flow cytometric analysis (reference value: 93.37%); assay type: functional; settings: read-out: Activity
[21] = tested on: HUVEC; assay: Cytotoxicity against HUVEC incubated for 6 hrs by inverted microscopic analysis; assay type: cell-based; settings: Homo sapiens
[22] = tested on: L02; assay: Cytotoxicity against human L02 cells assessed as reduction in cell viability incubated for 72 hrs by MTT assay; assay type: cell-based; settings: L02, 72 h
[23] = tested on: H22; assay: Antivascular activity against […] xenografted in ICR mouse assessed as reduction in tumor microvessel density at 20 mg/kg/day, iv administered for 21 days by immunohistochemical staining based analysis; assay type: functional, organism-based; settings: time 21.0 day
[24] = tested on: A-431; assay: Induction of ROS generation in human A-431 cells at 30 nM incubated for 48 hrs by DCFH-DA dye based fluorescence microscopy (reference value: 6.17%); assay type: functional
[25] = Induction of mitochondria membrane potential loss in human A-431 cells assessed as green fluorescence intensity at 15 nM incubated 48 hrs by JC-1 probe based flow cytometry analysis (reference value: 5.98%); assay type: functional
[26] = Induction of mitochondria membrane potential loss in human A-431 cells assessed as green fluorescence intensity at 30 nM incubated for 48 hrs by JC-1 probe based flow cytometry analysis (reference value: 5.98%); assay type: functional
[27] = tested on: A-431; assay: Induction of apoptosis in human A-431 cells assessed as late apoptotic cells at 15 nM after 48 hrs by Annexin-V-APC/PI-staining based flow cytometric analysis (reference value: 2.02%); assay type: functional
[28] = tested on: A-431; assay: Induction of cell cycle arrest in human A-431 cells assessed as accumulation at G1 phase at 15 nM after 48 hrs by propidium iodide staining based flow cytometry (reference value: 41.16%); assay type: functional
[29] = Toxicity in ICR mouse xenografted with […] cells assessed as effect on body weight at 20 mg/kg/day, iv for 21 days; assay type: organism-based; settings: in vivo, 504 h, time 21 day
[30] = tested on: A-431; assay: Induction of apoptosis in human A-431 cells assessed as activation of caspase 9 at 7.5 to 30 nM by western blot analysis; assay type: functional, cell-based; settings: dose 7.5-30 nM
[31] = Metabolic stability in rat plasma assessed as parent compound remaining at 100 nM measured after 3 hrs by HPLC analysis; assay type: ADME, cell-free; settings: read-out: Stabilty
[32] = Induction of mitochondria membrane potential loss in human A-431 cells assessed as red fluorescence intensity at 15 nM incubated 48 hrs by JC-1 probe based flow cytometry analysis (reference value: 93.83%); assay type: functional
[33] = n-Octanol/water partition coefficient, logD of the compound incubated for 24 hrs at pH 7.4 by HPLC analysis; assay type: physicochemical
[34] = tested on: A-431; assay: Induction of apoptosis in human A-431 cells assessed as viable cells at 30 nM after 48 hrs by Annexin-V-APC/PI-staining based flow cytometric analysis (reference value: 93.37%); assay type: functional; settings: read-out: Activity
[35] = tested on: A-431; assay: Induction of apoptosis in human A-431 cells assessed as chromatin condensation at 7.5 to 30 nM incubated for 48 hrs by Hoechst33342 staining based fluorescent microscopy; assay type: functional, cell-based; settings: dose 7.5-30 nM
[36] = tested on: A-431; assay: Induction of cell cycle arrest in human A-431 cells assessed as accumulation at S phase at 30 nM after 48 hrs by propidium iodide staining based flow cytometry (reference value: 46.57%); assay type: functional
[37] = Aqueous solubility of the compound in phosphate buffer at pH 7.4 by HPLC-UV analysis; assay type: physicochemical
[38] = tested on: A-431; assay: Induction of cell cycle arrest in human A-431 cells assessed as accumulation at G2 phase at 7.5 nM after 48 hrs by propidium iodide staining based flow cytometry (reference value: 7.27%); assay type: functional

SMILES: COc1ccc(CNC(=O)c2cc(F)ccc2N2CCOCC2)cc1O
- Activity [1]: Active
- Activity [2]: 73.18%
- Activity [3]: Dose-Dependent Effect
- Activity [4]: 56.41%
- Activity [5]: Dose-Dependent Effect
- Activity [6]: 8.23%
- Activity [7]: 34.02%
- Activity [8]: 9.79%
- IC50 [9]: 20 nM
- Activity [10]: 33.88%
- Activity [11]: Dose-Dependent Effect
- Activity [12]: 9.21%
- IC50 [13]: 19 nM
- IC50 [14]: 27 nM
- Activity [15]: 46.14%
- IC50 [16]: 106 nM
- Activity [17]: 22.59%
- Activity [18]: Active
- inhibition [19]: 56.9%
- viability at 0.015 µM [20]: 45.4%
- IC50 [21]: 120 nM
- IC50 [22]: 112 nM
- Activity [23]: Active
- Activity [24]: 21.99%
- Activity [25]: 45.4%
- Activity [26]: 65.96%
- Activity [27]: 26.43%
- Activity [28]: 61.16%
- Activity [29]: Non-Toxic
- Activity [30]: Active
- remaining at 3 h, 0.1 µM [31]: 91.5%
- Activity [32]: 54.43%
- logD at 24 h [33]: 1.61
- viability at 0.03 µM [34]: 26.5%
- Activity [35]: Active
- Activity [36]: 18.54%
- solubility [37]: 76.6 µg/mL (≈ 213 µM)
- Activity [38]: 13.84%
